The structures appear in SMILES notation.

The first assay deals with T1, Human ACC2 (ACC2 (Nd), N terminal deleted) (Homo sapiens, UniProt O00763).
T1 construct: made in house; host or cells: SF-9 insect cells (baculovirus)
T1 sequence (O00763 117-2458 limits assumed, stated change not applied): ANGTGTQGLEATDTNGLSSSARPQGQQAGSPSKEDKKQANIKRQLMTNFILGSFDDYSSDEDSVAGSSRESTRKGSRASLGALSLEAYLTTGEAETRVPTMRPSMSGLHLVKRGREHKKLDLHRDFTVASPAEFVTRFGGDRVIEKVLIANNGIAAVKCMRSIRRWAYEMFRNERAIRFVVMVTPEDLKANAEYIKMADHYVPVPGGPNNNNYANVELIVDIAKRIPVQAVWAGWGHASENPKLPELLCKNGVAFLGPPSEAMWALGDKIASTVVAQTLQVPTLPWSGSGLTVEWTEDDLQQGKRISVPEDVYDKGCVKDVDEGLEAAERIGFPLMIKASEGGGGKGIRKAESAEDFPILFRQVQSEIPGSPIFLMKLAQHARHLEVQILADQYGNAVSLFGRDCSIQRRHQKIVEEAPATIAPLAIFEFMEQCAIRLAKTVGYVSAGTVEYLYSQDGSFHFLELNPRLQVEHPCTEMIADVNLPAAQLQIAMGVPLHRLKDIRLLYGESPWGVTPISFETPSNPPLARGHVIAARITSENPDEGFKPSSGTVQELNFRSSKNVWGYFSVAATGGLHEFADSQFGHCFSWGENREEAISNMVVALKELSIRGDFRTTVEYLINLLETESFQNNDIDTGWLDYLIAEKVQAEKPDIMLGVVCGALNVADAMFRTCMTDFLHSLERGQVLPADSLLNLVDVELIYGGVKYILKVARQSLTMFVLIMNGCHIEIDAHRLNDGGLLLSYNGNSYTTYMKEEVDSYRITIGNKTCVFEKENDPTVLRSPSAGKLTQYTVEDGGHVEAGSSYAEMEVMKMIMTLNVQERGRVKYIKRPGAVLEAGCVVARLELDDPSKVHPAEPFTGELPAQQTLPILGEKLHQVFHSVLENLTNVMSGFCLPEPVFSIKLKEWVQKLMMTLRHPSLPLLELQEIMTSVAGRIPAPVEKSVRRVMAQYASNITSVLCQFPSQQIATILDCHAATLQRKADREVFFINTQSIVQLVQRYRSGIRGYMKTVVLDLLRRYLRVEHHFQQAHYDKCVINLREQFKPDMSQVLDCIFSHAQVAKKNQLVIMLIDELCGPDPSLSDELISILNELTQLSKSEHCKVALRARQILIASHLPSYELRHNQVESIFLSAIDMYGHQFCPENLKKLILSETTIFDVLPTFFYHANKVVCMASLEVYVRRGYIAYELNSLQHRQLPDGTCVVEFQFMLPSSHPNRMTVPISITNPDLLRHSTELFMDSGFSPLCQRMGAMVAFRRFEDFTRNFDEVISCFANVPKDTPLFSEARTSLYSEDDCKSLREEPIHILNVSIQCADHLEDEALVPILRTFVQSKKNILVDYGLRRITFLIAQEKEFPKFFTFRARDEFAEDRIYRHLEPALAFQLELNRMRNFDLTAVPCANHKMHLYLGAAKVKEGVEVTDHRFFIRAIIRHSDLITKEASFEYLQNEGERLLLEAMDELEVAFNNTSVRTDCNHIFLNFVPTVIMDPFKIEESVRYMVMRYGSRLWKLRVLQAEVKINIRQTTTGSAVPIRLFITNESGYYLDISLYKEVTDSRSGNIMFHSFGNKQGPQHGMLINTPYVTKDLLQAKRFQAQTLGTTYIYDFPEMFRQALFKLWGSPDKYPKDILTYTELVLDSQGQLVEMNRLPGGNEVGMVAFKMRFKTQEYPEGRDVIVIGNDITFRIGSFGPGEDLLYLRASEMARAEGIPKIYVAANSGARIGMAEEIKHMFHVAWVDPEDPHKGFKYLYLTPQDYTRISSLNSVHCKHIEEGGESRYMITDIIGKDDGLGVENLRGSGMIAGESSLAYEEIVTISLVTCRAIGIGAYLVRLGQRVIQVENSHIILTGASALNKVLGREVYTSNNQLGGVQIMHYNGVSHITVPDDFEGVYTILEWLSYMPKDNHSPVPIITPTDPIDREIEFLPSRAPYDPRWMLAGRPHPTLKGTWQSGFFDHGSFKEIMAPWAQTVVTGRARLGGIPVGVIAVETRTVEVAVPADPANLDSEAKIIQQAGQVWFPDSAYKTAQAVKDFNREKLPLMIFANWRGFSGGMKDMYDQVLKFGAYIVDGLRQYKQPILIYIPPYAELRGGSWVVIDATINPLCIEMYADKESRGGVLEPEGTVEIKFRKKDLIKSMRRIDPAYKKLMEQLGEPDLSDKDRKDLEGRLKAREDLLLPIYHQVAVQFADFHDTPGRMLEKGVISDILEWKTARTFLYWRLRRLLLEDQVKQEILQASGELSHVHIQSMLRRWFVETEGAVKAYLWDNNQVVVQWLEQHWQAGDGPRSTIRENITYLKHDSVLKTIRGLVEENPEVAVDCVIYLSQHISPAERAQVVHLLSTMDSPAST
Kind of assay: Measurement of ACC2 inhibitory activity (malachite green, recombinant ACC2 (Nd)). The format is biochemical. Conditions: 10 μM test compound; 20 min preincubation at 30° C., 20 min reaction; 10 µM. As to the method: The ACC2 inhibitory action of the compound of the present invention was evaluated by the following method.
(1) Cloning of Human ACC2 Gene and Preparation of Recombinant Baculovirus
Human ACC2 gene was cloned by PCR using a human skeletal muscle cDNA library (Clontech) as a template and Primer 1 and Primer 2 shown below. Primer 1 and Primer 2 were prepared by adding SalI, XbaI restriction enzyme recognition sequences based on the information of the base sequence of human ACC2 gene (Genbank Accession U89344).
PCR was performed using Pyrobest DNA polymerase (TAKARA BIO INC.). The obtained PCR product was cloned to pT7 Blue vector (Novagen) and after confirmation of the base sequence, digested with restriction enzymes SalI and XbaI. The obtained DNA fragment was inserted into pFAST-BacHTa (Invitrogen) digested with restriction enzymes Sail and XbaI to give expression plasmid ACC2/pFAST-BacHTa.
A plasmid for expression of ACC2 without a mitochondrial targeting sequence was prepared by PCR using the expression plasmid as a template, and Primer 3 (salI restriction enzyme recognition sequence was added) and Primer 4, which are prepared by reference to the information of human ACC2 gene base sequence (Genbank Accession U89344).
PCR was performed using Pyrobest-DNA polymerase (TAKARA BIO INC.). The obtained PCR product was cloned to pT7 Blue vector (Novagen) and after confirmation of the base sequence, digested with restriction enzymes SalI and Aflil. The obtained DNA fragment was inserted into ACC2/pFAST-BacHTa digested with restriction enzymes SalI and AfilI to give expression plasmid ACC2mito7/pFAST-BacHTa.
Using the expression plasmid ACC2mito7/pFAST-BacHTa and BAC-TO-BAC Baculovirus Expression System (Invitrogen), virus stock BAC-ACC2 of recombinant Baculovirus (N terminal deleted (hereinafter Nd)) was prepared.
(2) Preparation of ACC2 (Nd) Protein
SF-9 cells (Invitrogen) were inoculated to a medium (2 L) for insect cells (Sf-900IISFM medium (Invitrogen) containing 10% fetal bovine serum (Trace), 50 mg/L Gentamicin (Invitrogen), 0.1% Pluronic F-68 (Invitrogen)) at 0.5×10^6 cells/mL, and cultured with shaking in Wave Bioreactor (Wave) at 27° C., 20 rpm, rocking angle 6°, oxygen concentration 30%.
On day 4 of the culture, 3 L of the medium for insect cells was added, the rocking angle was set to 8°, and the cells were further cultured. On day 5 of the culture, 100 mL of recombinant Baculovirus BAC-ACC2 (Nd) was added, 5 L of the medium for insect cells was further added, the rocking angle was set to 11°, and the cells were cultured for 3 days. The culture medium was centrifuged at 1000×g for 10 min to give virus-infected cells. The cells were washed with phosphate buffered saline (Invitrogen) and centrifuged under the same conditions. The obtained cells were cryopreserved at −80° C.
The cryopreserved cells were thawed in ice and suspended in 900 mL of 25 mM HEPES buffer (pH 7.5) containing 10% Glycerol, 0.13 M NaCl, 1 mM EDTA, 25 mM Sodium β-Glycerophosphate and 1 mM Sodium Orthovanadate, and supplemented with Complete Protease Inhibitor (Nippon Boehringer Ingelheim Co., Ltd.). The obtained suspension was homogenized three times in a polytron homogenizer (Kinematica) at 20,000 rpm for 30 sec. The obtained cell disruption solution was clarified by centrifugation at 31000×g for 60 min, and filtered through a 0.45 μm filter. The filtrate was passed through a column packed with 60 mL of Ni-NTA Super Flow Gel (QUIAGEN) at a flow rate of about 5 mL/min. The column was washed with buffer A (50 mM HEPES (pH 7.5) containing 0.3 M NaCl), further washed with buffer A containing 20 mM Imidazole, and eluted with buffer A containing 100 mM Imidazole. The eluate was concentrated with Vivaspin 20 (Vivascience) with a molecular weight cut off of 30K. The obtained concentrate was dialyzed against 50 mM HEPES (pH 7.5) containing 10 mM MgCl2, 2 mM Dithiothreitol, 10 mM Tripotassium Citrate and 0.3 M NaCl. […]
Regarding `C[C@@H](COc1cnc(-c2nc3ccc(OCC4CC4(F)F)cc3o2)c(F)c1)NC(N)=O` (stereo partly drawn) [Example 111, Diastereomer of 1-{(1S)-2-[(6-{6-[(2,2-difluorocyclopropyl)methoxy]-1,3-benzoxazol-2-yl}-5-fluoropyridin-3-yl)oxy]-1-methylethyl}urea (retention time: short)], the “ACC2 inhibitory rate at 10 μM (%)” value came out at 100%.

The assay is the same for the next values; noted with them: 10 μM test compound; 20 min preincubation at 30° C., 20 min reaction; read-out: ACC2 inhibitory rate at 10 μM (%).
In the case of `CC(=O)N[C@@H](C)COc1ccc(-c2nc3ccc(OCC4CC4)cn3c2F)cc1` [Example 92, N-[(1S)-2-{4-[6-(cyclopropylmethoxy)-3-fluoroimidazo[1,2-a]pyridin-2-yl]phenoxy}-1-methylethyl]acetamide], the inhibition at 10 µM was determined as 93%.

On to `CNC(=O)N[C@@H](C)COc1ccc(-c2nc3ccc(OCC4CC4)cc3o2)nc1` [Example 16, 1-[(1S)-2-({6-[6-(cyclopropylmethoxy)-1,3-benzoxazol-2-yl]pyridin-3-yl}oxy)-1-methylethyl]-3-methylurea], for which the inhibition at 10 µM was found to be 93%. On to `CCC1(c2ccc(OC[C@H](C)NC(C)=O)cn2)Cc2ccc(OCC3CC3)cc2O1` (stereo partly drawn) [Example 119, Diastereomer of N-[(1S)-2-({6-[6-(cyclopropylmethoxy)-2-ethyl-2,3-dihydro-1-benzofuran-2-yl]pyridin-3-yl}oxy)-1-methylethyl]acetamide], for which the inhibition at 10 µM was determined as 97%. Same read-out and setting: the same measure for `CC(=O)N[C@@H](C)COc1ccc(-n2cc3ccc(OCC4CC4)cc3n2)cc1` [Example 13, N-[(1S)-2-{4-[6-(cyclopropylmethoxy)-2H-indazol-2-yl]phenoxy}-1-methylethyl]acetamide]: 94%; for `C[C@@H](COc1cnc(-c2nc3ccc(OCC4CC4(F)F)cc3o2)c(F)c1)NC(N)=O` (stereo partly drawn) [Example 97]: 95%; for `CC(=O)N[C@@H](C)COc1cc(F)c(-n2cc3ccc(OCC4CC4)cc3n2)cc1F` [Example 70, N-[(1S)-2-{4-[6-(cyclopropylmethoxy)-2H-indazol-2-yl]-2,5-difluorophenoxy}-1-methylethyl]acetamide]: 93%. Same read-out and setting: the figure for `CCOc1ccc2cn(-c3ccc(OC[C@H](C)NC(C)=O)cc3F)nc2c1` [Example 25, N-{(1S)-2-[4-(6-ethoxy-2H-indazol-2-yl)-3-fluorophenoxy]-1-methylethyl}acetamide monohydrate] is 90%; for `CC(=O)N[C@@H](C)COc1n[nH]c(-c2nc3ccc(OCC4CC4)cc3o2)c1F` [Example 9, N-[(1S)-2-({5-[6-(cyclopropylmethoxy)-1,3-benzoxazol-2-yl]-4-fluoro-1H-pyrazol-3-yl}oxy)-1-methylethyl]acetamide] it is 98%; for `CC(=O)N[C@@H](C)COc1cc(-c2nc3cc(OC(C)C)ccc3o2)on1` [Example 33, N-[(1S)-1-methyl-2-({5-[5-(1-methylethoxy)-1,3-benzoxazol-2-yl]isoxazol-3-yl}oxy)ethyl]acetamide] it is 85%. Consider `C[C@@H](COc1ccc(-c2nc3ccc(OCC4CC4)cc3o2)nc1)NC(N)=O` [Example 15, 1-[(1S)-2-({6-[6-(cyclopropylmethoxy)-1,3-benzoxazol-2-yl]pyridin-3-yl}oxy)-1-methylethyl]urea], for which the inhibition at 10 µM was 92%.

On to `CC(=O)N[C@@H](C)COc1cnc(-c2nc3ccc(OCC4CC4(F)F)cc3o2)c(F)c1` (stereo partly drawn) [Example 109, Diastereomer of N-{(1S)-2-[(6-{6-[(2,2-difluorocyclopropyl)methoxy]-1,3-benzoxazol-2-yl}-5-fluoropyridin-3-yl)oxy]-1-methylethyl}acetamide (retention time: short)], for which the inhibition at 10 µM came to 95%. For the compound `CCOc1ccc2cc(-c3ccc(OC[C@H](C)NC(C)=O)cc3)nn2c1` [Example 85, N-{(1S)-2-[4-(6-ethoxypyrazolo[1,5-a]pyridin-2-yl)phenoxy]-1-methylethyl}acetamide], the inhibition at 10 µM was 93%. Same read-out and setting: the same measure for `COC(=O)N[C@@H](C)COc1ccc(-c2nc3ccc(OCC4CC4)cc3o2)nc1` [Example 17, methyl [(1S)-2-({6-[6-(cyclopropylmethoxy)-1,3-benzoxazol-2-yl]pyridin-3-yl}oxy)-1-methylethyl]carbamate]: 90%; for `CC(=O)N[C@@H](C)COc1ccc(C2Cc3ccc(OCC4CC4)cc3O2)nc1` (stereo partly drawn) [Example 24, N-[(1S)-2-({6-[6-(cyclopropylmethoxy)-2,3-dihydro-1-benzofuran-2-yl]pyridin-3-yl}oxy)-1-methylethyl]acetamide]: 90%; for `CC(=O)N[C@@H](C)COc1ccc(-c2nc3ccc(OCC4CC4)cc3o2)cc1` [Example 3, N-[(1S)-2-{4-[6-(cyclopropylmethoxy)-1,3-benzoxazol-2-yl]phenoxy}-1-methylethyl]acetamide]: 99%. As to `CC(=O)N[C@@H](C)COc1ccc(-c2nc3ccc(OCC4CC4)cn3n2)cc1` [Example 89, N-[(1S)-2-{4-[6-(cyclopropylmethoxy)[1,2,4]triazolo[1,5-a]pyridin-2-yl]phenoxy}-1-methylethyl]acetamide], the inhibition at 10 µM worked out at 94%. Consider `CCOc1ccc2c(F)c(-c3ccc(OC[C@H](C)NC(C)=O)cc3F)nn2c1` [Example 100, N-{(1S)-2-[4-(6-ethoxy-3-fluoropyrazolo[1,5-a]pyridin-2-yl)-3-fluorophenoxy]-1-methylethyl}acetamide], for which the inhibition at 10 µM amounted to 90%.

Take `CCOc1ccc2cn(-c3ccc(OC[C@H](C)NC(C)=O)cc3)nc2c1` [Example 26, N-{(1S)-2-[4-(6-ethoxy-2H-indazol-2-yl)phenoxy]-1-methylethyl}acetamide]: the inhibition at 10 µM was 95%. Take `CC(=O)N[C@@H](C)COc1ccc(-n2cc3cc(OCC4CC4)ccc3n2)cc1` [Example 12, N-[(1S)-2-{4-[5-(cyclopropylmethoxy)-2H-indazol-2-yl]phenoxy}-1-methylethyl]acetamide]: the inhibition at 10 µM came to 103%. On the same count and under the same terms, the same measure for `CC(=O)N[C@@H](C)COc1ccc(-c2nc3cc(OCC4CC4)ccn3n2)cc1` [Example 95, N-[(1S)-2-{4-[7-(cyclopropylmethoxy) [1,2,4]triazolo[1,5-a]pyridin-2-yl]phenoxy}-1-methylethyl]acetamide]: 94%; for `CC(=O)N[C@@H](C)COc1ccc(-c2cc3ccc(OCC4CC4)cn3n2)c(F)c1` [Example 104, N-[(1S)-2-{4-[6-(cyclopropylmethoxy)pyrazolo[1,5-a]pyridin-2-yl]-3-fluorophenoxy}-1-methylethyl]acetamide]: 102%. In the case of `CC(=O)N[C@@H](C)COc1ccc(-n2nc3cc(OCC4CC4)ccc3c2F)cc1` [Example 73, N-[(1S)-2-{4-[6-(cyclopropylmethoxy)-3-fluoro-2H-indazol-2-yl]phenoxy}-1-methylethyl]acetamide], the inhibition at 10 µM was determined as 99%. The same measure, in the same setting: the figure for `CC(=O)N[C@@H](C)COc1ccc(-c2nn3cc(OCC4CC4)ccc3c2F)c(F)c1` [Example 102, N-[(1S)-2-{4-[6-(cyclopropylmethoxy)-3-fluoropyrazolo[1,5-a]pyridin-2-yl]-3-fluorophenoxy}-1-methylethyl]acetamide] is 99%.

Source of the values: patent US8729102B2, “Bicyclic compound” (Takeda Pharmaceutical Company Limited, priority 2010, dated 2014).
